Measured values as given in US11737991B2, “Eutectic formulations of cyclobenzaprine hydrochloride and amitriptyline hydrochloride” (TONIX PHARMA HOLDINGS LIMITED, priority 2013, dated 2023).
“Also recorded” adds a separate entry of the source. Where a name gives a salt, the structure may show the parent alone.

Legend:
Format in all cases: physicochemical
[1] = Dissolution test, USP paddle, pyrophosphate buffer pH 4.5; details: pH 4.5, free base still present and does not go into solution
Method: To test the dissolution properties of the 6 mannitol eutectic, dissolution tests were carried out with a Copley DIS 6000 instrument under the following conditions: Apparatus: USP Paddle RPM: 50 Medium: Pyrophosphate buffer 0.5% pH=4.5±0.05 Additive: Methocel 0.3% Vessel volume: 300 mL Temperature: 37±0.5° C. Sampling time: 1, 2, 5, 10, 20, 30, and 60 min, then each hour until 6 hours. The sampling solutions were diluted 1 to 50 mL and then 1 to 50 mL with medium and submitted to UV analysis with UV ([…]) under the following conditions: λ max: 224 nm Cuvette: […] Blank: medium

[2] = DSC, FT-IR/ATR and XRPD compatibility of excipients with Cyclobenzaprine HCl, mixed (A) and milled (B) 1:1 mixtures (Example 2); details: for Type of interaction between excipient and API (summary): 1:1 mixtures, mixed and milled
Method: As described above, thermal analytical techniques were further used to assess the compatibility of a drug product (tablet) containing Cyclobenzaprine HCl (API). The compatibility assessment was carried out between the API and additional excipients in a 1:1 ratio. The 1:1 APT-excipient mixtures were formed in two different ways: first, by mixing only, and second, by strong milling in an agate mortar. The thermal behavior recorded in the two different mixtures were compared with those of the single components. On the basis of thermal events recorded for each component and for the mixtures, the analyses were carried out by investigating the meanings of the peaks recorded by differential scanning calorimetry (DSC) in mixtures between the API and the excipients. Furthermore, in order to define the nature of the interaction, the Fourier Transform Infra Red Spectroscopy with Total Attenuated Reflectance (FT-IR/ATR) and X-ray powder diffraction (XRPD) of some samples (API, excipient, and mixed and milled mixtures) was carried out and compared.
Aliquots of API and each excipient were weighed in a ratio of 1:1 and ground in an agate mortar. Then, the homogeneous mixtures were analyzed. These sample mixtures were labeled “B”, while the mechanical-only mixtures were labeled “A.”
The DSC heating curves were obtained by TA 821 DSC Mettler instrument under the following conditions:
(§1) Ambient: Nitrogen 30 mL/min
(§2) Sample holder: normal open aluminum pan
(§3) Temperature range: from 25° C. to 250° C.
(§4) Instrument calibration: Indium sample purity 99.999%
The FT-IR spectra were collected with a Perkin Elmer spectrum Two instrument with air as background and 4 cm-1 resolution.
X-ray powder diffraction (XRPD) tests were performed with the ULTIMA IV instrument (Rigaku), laying the sample on a static sample holder. The X-ray focusing slit has a variable width, interlocked with the q value. The X-ray tube has a Copper target, with a current intensity of 40 mA and a voltage of 40 kV. Radiation was generated by the Cockcroft-Walton method, and was constituted by Kα1 (1.540562 Å) and Kα2 (1.544398 Å). The analytical conditions were:
Fixed Time; sampling width 0.02 deg, scanning rate 1.3 s/step, 2 q range 3.35 deg and sample holder; amorphous glass equiangular 9200/2G, 0.2 mm deep. The sample was pressed with a glass plate.

[3] = XRPD of binary Cyclobenzaprine HCl-mannitol mixtures (Example 3); details: binary mixtures 30-90% API, no thermal treatment
Method: In order to confirm the eutectic formation and to characterize its physical properties, several binary mixtures at different ratios of API-excipient were prepared and analyzed by DSC and by X-ray powder diffraction (XRPD). The mixtures were obtained by gently milling in agate mortar of micronized Cyclobenzaprine HCl and mannitol, in order to obtain homogeneous distribution of the particles. For each DSC heating curve, the onset temperature and the enthalpy were evaluated both for the eutectic contribute and for the excess of component. The recorded values were plotted and a phase diagram between the two components was obtained with a characteristic profile of phase diagrams of eutectic mixtures. Mixtures also were investigated by XRPD and compared with the patterns of pure components. […] Aliquots of Cyclobenzaprine HCl API and Mannitol were weighed in the ratios described below and ground in an agate mortar, and the homogeneous mixtures subsequently analyzed. X-ray powder diffraction (XRPD) tests were performed with a ULTIMA IV (Rigaku) instrument, laying the sample on a static sample holder. […] The radiation generated by the Cockcroft-Walton method is constituted by Kα1 (1.540562 Å) and Kα2 (1.544398 Å). The analytical conditions were as follows: Fixed Time: Sampling width, 0.02 deg; Scanning rate, 1.0 s/step […] Sample holder: amorphous glass—equiangular 9200/2G, 0.2 mm deep. […]

[4] = DSC compatibility of excipients with Cyclobenzaprine HCl (Example 1); details: for Excipient reactions with API, Mixture 1:1: 1:1 API:excipient, ground in agate mortar
Method: Thermal analytical techniques were used to assess the compatibility of a drug product (tablet) containing Cyclobenzaprine HCl (API). The compatibility assessment was carried out between the API and a number of possible excipients in a 1:1 ratio. Based on the thermal events recorded for each component and for the mixtures, the analyses were carried out by investigating the peaks recorded by differential scanning calorimetry (DSC) in mixture between API and the excipients. Differences in thermal profiles between the single compound and the related mixture obtained after milling the products in an agate mortar were evaluated. Stability and compatibility also were also assessed on the final drug product after stress conditions at 40° C. and 50° C. for one month.
A “formulation ratio” mixture was made with the following composition: 2.40 mg Cyclobenzaprine HCl, 31.55 mg Mannitol and Maize starch, 2.00 Crospovidone, 0.50 mg colloidal silica, 0.050 mg Sodium Stearyl Fumarate, and 1.05 Potassium hydrogen phosphate.
Aliquots of API and each excipient were weighed in a ratio of 1:1 (unless specified otherwise) and ground in an agate mortar. The homogeneous mixtures then were analyzed.
The DSC heating curves were obtained with a TA 821 DSC Mettler instrument under the following conditions:
as §1, §2, §3, §4

[5] = DSC compatibility of excipients with Amitriptyline HCl (Example 4); details: Amitriptyline HCl:excipient 1:1, milled in agate mortar
Method: Thermal analytical techniques were used to assess the compatibility of the drug product Amitriptyline HCl. The compatibility assessment was carried out between the API and the excipients in a 1:1 ratio. On the basis of thermal events recorded for each component and for the mixtures, the analyses were carried out by investigating the peaks recorded by DSC in mixtures between API and the excipients. Differences in thermal profiles between the single compound and the related mixtures were obtained after milling the products in an agate mortar.

[6] = listed as Potassium phosphate bibasic
[7] = listed as Sodium Stearyl fumarate, fumarate

For `CN(C)CCC=C1c2ccccc2C=Cc2ccccc21` [Cyclobenzaprine HCl, 3-(5H-dibenzo[a,d]cyclohepten-5-ylidene)-N,N-dimethyl-1-propanamine], the Cyclobenzaprine dissolution [1] was < 100%.
With `OC[C@@H](O)[C@@H](O)[C@H](O)[C@H](O)CO` [Mannitol] the “Type of interaction between excipient and API (summary)” value (“Type” for short) [2] was “formation of a eutectic” and the “Interaction between API and mannitol by XRPD” value [3] was “no adduct formation, only a physical eutectic formation; also recorded: no adduct interaction occurred”.
With `O=P([O-])([O-])O.[K+].[K+]` [Potassium phosphate dibasic, dipotassium hydrogen phosphate] the “Excipient reactions with API, Mixture 1:1” value [4] was “Acid - base interaction”, the “Excipient reactions with API, Mixture 1:1” value [4, 6] was “chemical interaction (acid-base); also recorded: chemical (acid-base) interaction” and the “Excipient reactions with API, Mixture in formulation ratio” value [4] was “Low chemical”. For the same compound, the “Excipient reactions with API, Mixture in formulation ratio” value ([4]; listed as K2HPO4) was “small interaction” and the “Excipient reactions with API, Mixture in formulation ratio” value [4, 6] was “chemical (acid-base) interaction”.
In the case of `CCCCCCCCCCCCCCCCCCOC(=O)/C=C/C(=O)[O-].[Na+]` [Sodium stearyl fumarate], the “Excipient reactions with API, Mixture 1:1” value ([4]; fumarate) was “Physical interaction”, the “Excipient reactions with API, Mixture 1:1” value [4, 7] was “small physical interaction” and the “Excipient reactions with API, Mixture in formulation ratio” value ([4]; fumarate) was “No interaction”. For the same compound, the “Excipient reactions with API, Mixture in formulation ratio” value [4, 7] was “this incompatibility disappears”.
For `OC[C@@H](O)[C@@H](O)[C@H](O)[C@@H](O)CO` [Sorbitol], the “Type” value [2] was “physical interaction”.
For `O=C([O-])CC(O)(CC(=O)[O-])C(=O)[O-].[Na+].[Na+].[Na+]` [Tri Sodium Citrate anhydrous, Trisodium citrate anhydrous], the “Nature of interaction by FT-IR/ATR” value ([2]; 1:1 mixture, room temperature, no thermal treatment) was “no chemical acid-base reaction had occurred” and the “Type” value [2] was “only physical”.
For Sodium Phosphate dodecahydrate, the “Interactions between API and excipients, Mixture in formulation (1:1 ratio)” value [5] was “physical interaction”.
